Counter-ions that a name gives are not always drawn.
What was measured:
[1] = biological target: T1, recombinant guanylate cyclase reporter cell line (Rattus norvegicus, UniProt P19686+P20595); assay: Effect on a recombinant guanylate cyclase reporter cell line (B-2); format: cell-based; conditions: MEC = minimum effective concentration, in some cases mean values for individual determinations
T1 construct: expressed in transfected cells
T1 sequence (P19686 1-690): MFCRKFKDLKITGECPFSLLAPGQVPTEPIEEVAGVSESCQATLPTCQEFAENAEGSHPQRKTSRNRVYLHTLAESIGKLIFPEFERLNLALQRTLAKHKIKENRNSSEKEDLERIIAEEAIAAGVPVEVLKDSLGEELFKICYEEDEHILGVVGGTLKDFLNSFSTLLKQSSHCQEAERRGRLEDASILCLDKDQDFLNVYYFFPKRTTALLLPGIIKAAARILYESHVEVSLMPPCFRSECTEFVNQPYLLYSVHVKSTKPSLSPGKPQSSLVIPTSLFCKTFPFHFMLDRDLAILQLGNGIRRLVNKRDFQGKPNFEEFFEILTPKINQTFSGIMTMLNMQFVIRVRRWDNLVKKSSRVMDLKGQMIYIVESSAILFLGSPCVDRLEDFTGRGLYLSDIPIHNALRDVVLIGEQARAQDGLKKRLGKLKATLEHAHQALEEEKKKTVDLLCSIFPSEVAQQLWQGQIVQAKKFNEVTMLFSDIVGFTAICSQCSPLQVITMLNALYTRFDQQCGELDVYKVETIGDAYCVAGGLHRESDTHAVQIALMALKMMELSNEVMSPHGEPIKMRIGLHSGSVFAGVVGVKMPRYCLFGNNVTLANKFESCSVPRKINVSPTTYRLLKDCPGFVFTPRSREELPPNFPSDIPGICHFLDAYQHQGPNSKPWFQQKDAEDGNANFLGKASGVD
T1 sequence (P20595 1-619): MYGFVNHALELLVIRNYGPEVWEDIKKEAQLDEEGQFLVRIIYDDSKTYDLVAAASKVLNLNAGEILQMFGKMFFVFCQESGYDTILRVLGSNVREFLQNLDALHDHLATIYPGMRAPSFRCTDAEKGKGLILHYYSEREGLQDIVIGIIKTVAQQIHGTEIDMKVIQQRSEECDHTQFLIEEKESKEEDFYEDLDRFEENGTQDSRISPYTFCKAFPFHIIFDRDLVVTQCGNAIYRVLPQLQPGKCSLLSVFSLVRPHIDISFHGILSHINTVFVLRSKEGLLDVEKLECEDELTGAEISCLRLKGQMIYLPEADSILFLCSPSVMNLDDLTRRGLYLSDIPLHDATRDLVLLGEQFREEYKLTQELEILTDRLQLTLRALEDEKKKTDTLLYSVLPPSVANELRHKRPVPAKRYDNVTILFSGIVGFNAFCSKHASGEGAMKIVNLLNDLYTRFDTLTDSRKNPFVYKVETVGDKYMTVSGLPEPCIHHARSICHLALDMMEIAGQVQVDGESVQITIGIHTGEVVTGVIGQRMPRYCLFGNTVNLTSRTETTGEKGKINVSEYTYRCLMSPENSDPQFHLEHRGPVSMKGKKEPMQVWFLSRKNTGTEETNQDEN
Procedure, shortened: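 Cellular guanylate cyclase activity measured in a recombinant reporter cell line expressing rat soluble guanylate cyclase subunits. Values are minimum effective concentrations (MEC), some as means of individual determinations.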

[2] = biological target: T2, human phosphodiesterase 5 (PDE 5) (Homo sapiens, UniProt O76074); assay: Inhibition of human phosphodiesterase 5 (PDE 5) (B-3); format: biochemical; conditions: PDE 5 preparation from human platelets; [8-3H] cGMP substrate, SPA; in some cases means of individual determinations
T2 construct: PDE 5 preparations are obtained from human platelets by disruption; from tissue; host or cells: human platelets (Mono Q ion exchange fractions with PDE 5 activity)
Procedure, shortened: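 Enzyme partially purified from human platelets by Mono Q ion exchange; [8-3H]cGMP substrate (0.025 μCi), Tris-HCl pH 7.5 with MgCl2/EDTA, <70% conversion, 60 min at room temperature. Compounds tested at 4 to 0.0018 μM final; yttrium SPA bead read-out, IC50 from concentration–% inhibition plot.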

An MEC [1] of 0.3 µM and an IC50 [2] of 4.6 nM were found for `Cc1nc2c(OCc3c(F)cccc3F)cccn2c1-c1nc(NCC2(O)CC2)c2c(n1)NC(=O)C2(C)C` [Example 17, 2-{8-[(2,6-difluorobenzyl)oxy]-2-methylimidazo[1,2-a]pyridin-3-yl}-4-{[(1-hydroxycyclopropyl)methyl]amino}-5,5-dimethyl-5,7-dihydro-6H-pyrrolo[2,3-d]pyrimidin-6-one] in this work.
An MEC [1] of 1 µM and an IC50 [2] of 7.1 nM were found for `Cc1nc2c(OCc3c(F)cccc3F)cccn2c1-c1nc(NCCC(F)(F)F)c2c(n1)NC(=O)C2(C)C` [Example 19, 2-{8-[(2,6-difluorobenzyl)oxy]-2-methylimidazo[1,2-a]pyridin-3-yl}-5,5-dimethyl-4-[(3,3,3-trifluoropropyl)amino]-5,7-dihydro-6H-pyrrolo[2,3-d]pyrimidin-6-one] in this work.
An MEC [1] of 3 µM and an IC50 [2] of 3.9 nM were found for `Cc1nc2c(OCc3c(F)cccc3F)cccn2c1-c1nc(NC[C@H](O)CO)c2c(n1)NC(=O)C2(C)C` [Example 22, 2-{8-[(2,6-difluorobenzyl)oxy]-2-methylimidazo[1,2-a]pyridin-3-yl}-4-{[(2S)-2,3-dihydroxypropyl]amino}-5,5-dimethyl-5,7-dihydro-6H-pyrrolo[2,3-d]pyrimidin-6-one] in this work.
An MEC [1] of 3 µM and an IC50 [2] of 8 nM were found for `Cc1nc2c(OCc3c(F)cccc3F)cccn2c1-c1nc(NC[C@@H](O)CO)c2c(n1)NC(=O)C2(C)C` [Example 23, 2-{8-[(2,6-difluorobenzyl)oxy]-2-methylimidazo[1,2-a]pyridin-3-yl}-4-{[(2R)-2,3-dihydroxypropyl]amino}-5,5-dimethyl-5,7-dihydro-6H-pyrrolo[2,3-d]pyrimidin-6-one] in this work.
An MEC [1] of 0.3 µM and an IC50 [2] of 1.3 nM were found for `Cc1nc2c(OCc3c(F)cccc3F)cccn2c1-c1nc(NCCO)c2c(n1)NC(=O)C2(C)C` [Example 24, 2-{8-[(2,6-difluorobenzyl)oxy]-2-methylimidazo[1,2-a]pyridin-3-yl}-4-[(2-hydroxyethyl)amino]-5,5-dimethyl-5,7-dihydro-6H-pyrrolo[2,3-d]pyrimidin-6-one trifluoroacetate] in this work.
An MEC [1] of 3 µM and an IC50 [2] of 26 nM were found for `Cc1nc2c(OCc3c(F)cccc3F)cccn2c1-c1nc(NCCN2CCC(F)(F)C2)c2c(n1)NC(=O)C2(C)C` [Example 26, 2-{8-[(2,6-difluorobenzyl)oxy]-2-methylimidazo[1,2-a]pyridin-3-yl}-4-{[2-(3,3-difluoropyrrolidin-1-yl)ethyl]amino)-5,5-dimethyl-5,7-dihydro-6H-pyrrolo[2,3-d]pyrimidin-6-one] in this work.
An MEC [1] of 1 µM and an IC50 [2] of 9.7 nM were found for `Cc1nc2c(OCc3c(F)cccc3F)cccn2c1-c1nc(NCC(N)(CF)CF)c2c(n1)NC(=O)C2(C)C` [Example 33, 4-{[2-amino-3-fluoro-2-(fluoromethyl)propyl]amino}-2-{8-[(2,6-difluorobenzyl)oxy]-2-methylimidazo[1,2-a]pyridin-3-yl}-5,5-dimethyl-5,7-dihydro-6H-pyrrolo[2,3-d]pyrimidin-6-one] in this work.
An MEC [1] of 1 µM and an IC50 [2] of 5.3 nM were found for `Cc1nc2c(OCc3c(F)ccc(F)c3F)cccn2c1-c1nc(NCC(C)(C)O)c2c(n1)NC(=O)C2(C)C` [Example 34, 4-[(2-hydroxy-2-methylpropyl)amino]-5,5-dimethyl-2-{2-methyl-8-[(2,3,6-trifluorobenzyl)oxy]imidazo[1,2-a]pyridin-3-yl}-5,7-dihydro-6H-pyrrolo[2,3-d]pyrimidin-6-one] in this work.
An MEC [1] of 0.3 µM and an IC50 [2] of 20 nM were found for `Cc1nc2c(OCc3c(F)cccc3F)cccn2c1-c1nc2c(c(N3CCC[C@H]3CO)n1)C(C)(C)C(=O)N2` [Example 36, 2-{8-[(2,6-difluorobenzyl)oxy]-2-methylimidazo[1,2-a]pyridin-3-yl}-4-[(2S)-2-(hydroxymethyl)pyrrolidin-1-yl]-5,5-dimethyl-5,7-dihydro-6H-pyrrolo[2,3-d]pyrimidin-6-one] in this work.

Source: patent publication US9688699B2, “3-(pyrimidine-2-yl)imidazo[1,2-a]pyridines” (Bayer Pharma Aktiengesellschaft, priority 2014, dated 2017)
